According to publication PMC6627609, “Targeting Quorum Sensing: High-Throughput Screening to Identify Novel LsrK Inhibitors” (International Journal of Molecular Sciences, 2019):
Where a name gives a salt, the structure may show the parent alone.

Target: LsrK (Salmonella typhimurium, UniProt Q8ZKQ6)
Experiment: biochemical
Type: biochemical, S. typhimurium
Settings: for Inhibition (%): 50 µM

Chain of LsrK (Q8ZKQ6 whole entry): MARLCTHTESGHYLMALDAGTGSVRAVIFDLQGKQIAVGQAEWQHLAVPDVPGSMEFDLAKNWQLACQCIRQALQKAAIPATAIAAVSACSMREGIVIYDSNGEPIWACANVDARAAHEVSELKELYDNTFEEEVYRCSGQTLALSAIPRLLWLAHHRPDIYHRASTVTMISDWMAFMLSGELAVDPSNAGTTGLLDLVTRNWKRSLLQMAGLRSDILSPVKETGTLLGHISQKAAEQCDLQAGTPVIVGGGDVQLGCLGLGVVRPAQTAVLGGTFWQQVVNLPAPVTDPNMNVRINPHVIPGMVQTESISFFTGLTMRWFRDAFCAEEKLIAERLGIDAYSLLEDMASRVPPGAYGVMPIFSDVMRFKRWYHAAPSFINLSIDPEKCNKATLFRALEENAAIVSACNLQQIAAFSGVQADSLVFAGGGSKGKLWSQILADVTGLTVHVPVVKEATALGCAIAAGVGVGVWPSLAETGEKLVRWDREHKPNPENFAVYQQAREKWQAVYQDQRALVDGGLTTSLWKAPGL

`C[C@]12C=CC(=O)C=C1CC[C@H]1[C@@H]3C[C@@H](O)[C@](O)(C(=O)CO)[C@@]3(C)C[C@H](O)[C@@]12F` [TRIAMCINOLONE] was tested. Which inhibition at 50 µM did it give?
Its inhibition at 50 µM is 11%.

How did the inhibition at 50 µM turn out when `O=c1cc(-c2ccccc2)oc2cc(O)cc(O)c12` [CHRYSIN] was run?
Its inhibition at 50 µM is 3%.

Which inhibition at 50 µM does the source give for `CC(=O)O[C@]1(C(C)=O)CC[C@H]2[C@@H]3C[C@H](C)C4=CC(=O)CC[C@]4(C)[C@H]3CC[C@@]21C` [MEDROXYPROGESTERONE ACETATE] here?
The inhibition at 50 µM was 1%.

With `Cc1c(S(=O)(=O)[O-])oc2c1C(=O)C(=O)c1c-2ccc2c1CCCC2(C)C.[Na+]` [TANSHINONE IIA SULFONATE SODIUM] as the compound, how does the “Inhibition (%)” value read?
Its value is 55.

For `N#C/C(=C\c1cccc(O)c1)C(=O)O` [alpha-CYANO-3-HYDROXYCINNAMIC ACID], which inhibition at 50 µM is on record?
Its inhibition at 50 µM is 2%.

Which “Inhibition (%)” value does the source give for METHIONINE SULFOXIMINE (L) here?
Its value is 2.

With `CCCCC(=O)Oc1ccccc1C(=O)O` [VALERYL SALYCILATE] as the compound, how does the inhibition at 50 µM read?
Its inhibition at 50 µM is 1%.

How did the inhibition at 50 µM turn out when `CC[C@H]1OC(=O)[C@H](C)C(=O)[C@H](C)[C@@H](O[C@@H]2O[C@H](C)C[C@H](N(C)C)[C@H]2O)[C@](C)(OC)C[C@@H](C)C(=O)[C@H](C)[C@H]2N(CCCCn3cnc(-c4cccnc4)c3)C(=O)O[C@]12C` [TELITHROMYCIN] was run?
Its inhibition at 50 µM is 7%.

`C[C@]12CC[C@@H]3c4ccc(O)cc4CC[C@H]3[C@@H]1CC[C@@H]2OC(=O)CCC1CCCC1` [ESTRADIOL CYPIONATE] was tested. Which inhibition at 50 µM did it give?
The inhibition at 50 µM was 0%.

NEOMYCIN SULFATE was tested. Which “Inhibition (%)” value did it give?
The value was 1.

Which inhibition at 50 µM does the source give for `CCN1C[C@]2(COC)[C@H](O)C[C@H](OC)[C@@]34[C@@H]5C[C@@]6(O)[C@H](OC(=O)c7ccccc7)[C@@H]5[C@@](OC(C)=O)([C@@H]([C@H](OC)[C@H]23)[C@@H]14)[C@@H](O)[C@@H]6OC` [ACONITINE] here?
The inhibition at 50 µM was 1%.

With `CC1=CC(=O)[C@H]2C(C)(C)CCC[C@]2(C)[C@@]1(O)CCc1ccoc1` [SOLIDAGENONE] as the compound, how does the “Inhibition (%)” value read?
Its value is 0.

Which inhibition at 50 µM does the source give for `C=C(C)[C@@H]1CC[C@]2(CO)CC[C@]3(C)[C@H](CC[C@@H]4[C@@]5(C)CC[C@H](O)C(C)(C)[C@@H]5CC[C@]43C)[C@@H]12` [BETULIN] here?
Its inhibition at 50 µM is 4%.

How did the inhibition at 50 µM turn out when `N[C@@H]1CON=C1O` [CYCLOSERINE] was run?
Its inhibition at 50 µM is 0%.

`N[C@@H](Cc1ccc(O)cc1)C(=O)O` [TYROSINE] was tested. Which inhibition at 50 µM did it give?
The inhibition at 50 µM was 1%.

With `C[n+]1ccccc1/C=N/O` [PRALIDOXIME CHLORIDE] as the compound, how does the inhibition at 50 µM read?
Its inhibition at 50 µM is 1%.

`N[C@@H](C(=O)N[C@@H]1C(=O)N2C(C(=O)O)=C(Cl)CS[C@H]12)c1ccccc1` [CEFACLOR] was tested. Which inhibition at 50 µM did it give?
The inhibition at 50 µM was 24%.

`CCOC(=O)CCC(=O)O[C@H]1[C@H](O[C@@H]2[C@@H](C)[C@H](O[C@H]3C[C@@](C)(OC)[C@@H](O)[C@H](C)O3)[C@@H](C)C(=O)O[C@H](CC)[C@@](C)(O)[C@H](O)[C@@H](C)C(=O)[C@H](C)C[C@@]2(C)O)O[C@H](C)C[C@@H]1N(C)C` [ERYTHROMYCIN ETHYLSUCCINATE] was tested. Which inhibition at 50 µM did it give?
Its inhibition at 50 µM is 1%.

For `CC1(C)C(=O)C=C[C@]2(C)[C@H]3CC[C@@]4(C)[C@H](c5ccoc5)OC(=O)[C@H]5O[C@]54[C@]3(C)[C@H](O)C[C@@H]12` [DEACETYLGEDUNIN], which inhibition at 50 µM is on record?
The inhibition at 50 µM was 1%.

How did the inhibition at 50 µM turn out when `CN1C(C)(C)CCCC1(C)C` [PEMPIDINE TARTRATE] was run?
The inhibition at 50 µM was 2%.

For `CC(=O)O[C@@H]1C[C@H]2C(C)(C)C(=O)C=C[C@]2(C)[C@H]2CC[C@@]3(C)[C@H](c4ccoc4)OC(=O)[C@H]4O[C@]43[C@@]21C` [GEDUNIN], which inhibition at 50 µM is on record?
The inhibition at 50 µM was 0%.

How did the inhibition at 50 µM turn out when `CC(=O)OCC(=O)[C@@]1(O)CC[C@H]2[C@@H]3CCC4=CC(=O)CC[C@]4(C)[C@@]3(F)[C@@H](O)C[C@@]21C` [FLUDROCORTISONE ACETATE] was run?
Its inhibition at 50 µM is 2%.

Which inhibition at 50 µM does the source give for `C[C@@H]1[C@H](O)[C@@H](C)/C=C/C=C/C=C/C=C/C=C/C=C/C=C/[C@H](O[C@@H]2O[C@H](C)[C@@H](O)[C@H](N)[C@@H]2O)C[C@@H]2O[C@](O)(C[C@@H](O)C[C@@H](O)[C@H](O)CC[C@@H](O)C[C@@H](O)CC(=O)O[C@H]1C)C[C@H](O)[C@H]2C(=O)O` [AMPHOTERICIN B] here?
The inhibition at 50 µM was 61%.

With `CC(C)=CCCC1(C)C=Cc2c(O)c3c(c(CC=C(C)C)c2O1)OC12C(=CCCC1C(C)(C)O[C@@]2(C/C=C(\C)C(=O)O)C(=O)O)C3=O` (some centres unmarked) [[…]] as the compound, how does the inhibition at 50 µM read?
Its inhibition at 50 µM is 75%.

For `COc1ccccc1OCC(O)CO` (centres unmarked) [GUAIFENESIN], which inhibition at 50 µM is on record?
The inhibition at 50 µM was 0%.

For `O=c1c(O)c(-c2ccc(O)c(O)c2)oc2c(O)c(O)cc(O)c12` [GOSSYPETIN], which inhibition at 50 µM is on record?
The inhibition at 50 µM was 115%.

`CCCc1nc(C)c2c(=O)[nH]c(-c3cc(S(=O)(=O)N4CCN(CC)CC4)ccc3OCC)nn12` [VARDENAFIL HYDROCHLORIDE] was tested. Which inhibition at 50 µM did it give?
Its inhibition at 50 µM is 1%.

For `COc1cc(O)c(C(C)=O)c(OC)c1` [XANTHOXYLIN], which inhibition at 50 µM is on record?
Its inhibition at 50 µM is 0%.

`CN1CCC(=C2c3ccccc3CC(=O)c3sccc32)CC1` [KETOTIFEN FUMARATE] was tested. Which inhibition at 50 µM did it give?
The inhibition at 50 µM was 1%.

With `CCN1CCN(C(=O)N[C@@H](C(=O)N[C@@H]2C(=O)N3C(C(=O)O)=C(CSc4nnnn4C)CS[C@H]23)c2ccc(O)cc2)C(=O)C1=O` [CEFOPERAZONE SODIUM] as the compound, how does the inhibition at 50 µM read?
The inhibition at 50 µM was 0%.

`CO[C@H]1[C@H](O)[C@H](O[C@H]2CC[C@@]3(C=O)[C@H](CC[C@@H]4[C@@H]3CC[C@]3(C)[C@@H](C5=CC(=O)OC5)CC[C@]43O)C2)O[C@@H](C)[C@@H]1O` [PERUVOSIDE] was tested. Which inhibition at 50 µM did it give?
Its inhibition at 50 µM is 1%.

With `COc1cc2c3cc1Oc1cc(ccc1O)C[C@@H]1c4c(cc(OC)c(O)c4Oc4ccc(cc4)C[C@@H]3N(C)CC2)CC[N+]1(C)C.Cl.O.O.O.O.O.[Cl-]` [TUBOCURARINE CHLORIDE] as the compound, how does the “Inhibition (%)” value read?
Its value is 0.

`CCCCC(CC)CCC(CC(C)C)OS(=O)(=O)O` (centres unmarked) [SODIUM TETRADECYL SULFATE] was tested. Which inhibition at 50 µM did it give?
Its inhibition at 50 µM is 98%.

With `O=C1C=C2C(=CCOC2O)O1` (centres unmarked) [PATULIN] as the compound, how does the inhibition at 50 µM read?
Its inhibition at 50 µM is 99%.

Which “Inhibition (%)” value does the source give for `COc1cc2c(cc1OC)-c1c(oc3cc(O)cc(O)c3c1=O)CO2` [APOTOXICAROL] here?
The value was 1.

With `Nc1nc(=O)c2nc(CNc3ccc(C(=O)N[C@@H](CCC(=O)O)C(=O)O)cc3)cnc2[nH]1` [FOLIC ACID] as the compound, how does the inhibition at 50 µM read?
The inhibition at 50 µM was 90%.

How did the “Inhibition (%)” value turn out when `COc1ccc(C(=O)O)c(O)c1OC` [2-HYDROXY-3.4-DIMETHOXYBENZOIC ACID] was run?
The value was 1.

Which “Inhibition (%)” value does the source give for `COC(=O)NC(=S)Nc1ccccc1NC(=S)NC(=O)OC` here?
The value was 3.

With `COc1cc([C@@H]2c3cc4c(cc3[C@@H](O[C@@H]3O[C@@H]5CO[C@@H](C)O[C@H]5[C@H](O)[C@H]3O)[C@H]3COC(=O)[C@H]23)OCO4)cc(OC)c1O` [ETOPOSIDE] as the compound, how does the inhibition at 50 µM read?
Its inhibition at 50 µM is 1%.

`CC(=O)O[C@H]1CC[C@@]2(C)C(=CC=C3[C@@H]4CC[C@H]([C@H](C)/C=C/[C@H](C)C(C)C)[C@@]4(C)CC[C@@H]32)C1` [ERGOSTEROL ACETATE] was tested. Which “Inhibition (%)” value did it give?
Its value is 2.

How did the inhibition at 50 µM turn out when `COc1cc2c(cc1OC)[C@@]13CCN4CC5=CCO[C@H]6CC(=O)N2[C@H]1[C@H]6[C@H]5C[C@H]43` [BRUCINE] was run?
Its inhibition at 50 µM is 2%.

Which inhibition at 50 µM does the source give for `[H]/N=C(\N/C(=N/[H])Nc1ccc(Cl)cc1)NC(C)C` [CHLOROGUANIDE HYDROCHLORIDE] here?
The inhibition at 50 µM was 1%.

Which inhibition at 50 µM does the source give for `NCC(O)c1ccc(O)cc1` (centres unmarked) [OCTOPAMINE HYDROCHLORIDE] here?
Its inhibition at 50 µM is 2%.

With `CO[C@@]12[C@H](COC(N)=O)C3=C(C(=O)C(C)=C(N)C3=O)N1C[C@@H]1N[C@@H]12` [MITOMYCIN C] as the compound, how does the inhibition at 50 µM read?
The inhibition at 50 µM was 0%.

For `Cn1nnnc1SCC1=C(C(=O)O)N2C(=O)[C@@H](NC(=O)[C@H](O)c3ccccc3)[C@H]2SC1` [CEFAMANDOLE SODIUM], which inhibition at 50 µM is on record?
Its inhibition at 50 µM is 15%.

For `NC(=O)C[S+]([O-])C(c1ccccc1)c1ccccc1` (centres unmarked) [MODAFINIL], which inhibition at 50 µM is on record?
The inhibition at 50 µM was 1%.

With `Cc1cc(O)c(C)c(O)c1C(=O)O` [3-METHYL[…]] as the compound, how does the inhibition at 50 µM read?
Its inhibition at 50 µM is 1%.
